Key:
[1] = Lymphatic transport assay in mesenteric lymph-duct cannulated rats; assay type: in vivo, rat; settings: total MPA related compound, intraduodenal infusion, anesthetised mesenteric lymph-duct cannulated rats; class symbols
Description: In order to assess the lymphatic transport of disclosed lipid prodrugs in rats, the mesenteric lymph ducts of the rats used in this study were cannulated to allow continual collection of mesenteric lymph. Lipid formulations containing the compound of interest were then administered to the animals, lymph was collected, and drug concentrations in the lymph samples were quantified.
Lipid-based formulations of the compounds of the invention or control compounds were prepared as previously described (Trevaskis, N. L. et al., Pharmaceutical Research, 2005, 22(11), 1863-1870, WO 2016/023082, and WO 2017/041139, hereby incorporated by reference.
In brief, either 1 or 2 mg of test prodrug, 40 mg oleic acid and 25 mg Tween 80 were mixed in a glass vial and incubated at 37° C. for 12-18 h to equilibrate. An aqueous phase consisting of 5.6 ml phosphate buffered saline (PBS, pH 7.4) was subsequently added to the lipid phase (MPA was dissolved in PBS for the preparation of MPA containing formulations) and the formulation emulsified by ultrasonication with a Misonix XL 2020 ultrasonic processor (Misonix, Farmingdale, NY, USA) equipped with a 3.2-mm microprobe tip running at 30% of the maximal amplitude of 240 μm and a frequency of 20 kHz for 2 min at room temperature. Doses for administering to more than one animal can be prepared in one batch by suitably increasing the quantities given above. Drug/prodrug concentrations in all formulations were verified using HPLC-MS.
Male Sprague-Dawley (SD) rats were selected for the lymphatic transport studies. Rats (typically 240-320 g) were maintained on a standard diet and fasted overnight with free access to water prior to experiments.
Anesthetized rats were placed on a heated pad at 37° C. and cannulas inserted into the duodenum (for formulation administration and rehydration), mesenteric lymph duct (for lymph collection), and carotid artery (in cases where blood collection was conducted). Post-surgery, rats were re-hydrated for 0.5 h via intraduodenal infusion of normal saline at 2.8 mL/h. The lipid formulations were infused into the duodenum at 2.8 mL/h for 2 h after which, normal saline was infused at 2.8 mL/h for the remainder of the experiment. Lymph was continuously collected for up to 8 h into pre-weighed Eppendorf tubes containing 10 μL of 1,000 IU/mL heparin. The collection tubes were changed hourly and lymph flow was measured gravimetrically. Aliquots of hourly lymph samples were stored at −20° C. prior to assay.
Drug concentration in lymph is expressed as total drug and includes free drug and drug associated with different glycerides. Lymph samples are first treated with a lipase or other appropriate conditions to liberate free active agent prior to measurement of active agent levels in the lymph. Treatment with a lipase or other hydrolysis conditions liberates free active agent from any corresponding re-esterified glycerides. Porcine pancreatic lipase is appropriate for this purpose. Alternatively, hydrolysis with 0.5 M NaOH may be used. For MPA “phenol” prodrugs (i.e. prodrugs linked to the triglyceride at the aromatic —OH group of MPA), hydrolysis was performed with 0.5 M NaOH except for the lymph samples collected from 3 rats in the group of compound I-20 (MPA-O-C12α′βMe-TG), which were hydrolyzed by porcine pancreatic lipase.
Transport of compounds into lymph during each hourly collection period was calculated from the product of the volume of lymph collected and the measured concentrations in lymph. For fluorescently-labelled compounds such as a BDP-conjugate, the concentrations of total compound may be measured by fluorescence spectroscopy without hydrolysis.
The results of the lymphatic transport assays are summarized in Table 2, below, and FIGS. 1-19. Table 2 summarizes lymphatic transport of total MPA related compound (% of administered dose) following intraduodenal infusion to anaesthetised, mesenteric lymph-duct cannulated rats. […]

[2] = Prodrug lymph node study in mice (free MPA in mesenteric and peripheral lymph nodes); assay type: in vivo, mouse; settings: oral multiple dose study (2 times daily for 2 days, samples on 3rd day)
Source text: This experiment included a single and multiple dose study.

[3] = In vitro release of MPA from prodrugs in plasma supplemented with lipoprotein lipase (LPL); assay type: in vitro ADME, rat; settings: 60 min; n = 3 unless specified otherwise
Description: The percentage of MPA released at 60 minutes in LPL-supplemented rat plasma was also determined for selected compounds. […] The designation “**” indicates a release % of >25% to 50%. The designation “***” indicates a release % of >50% to 75%. The designation “****” indicates a release % of >75%.
In order to probe the release of free drug from TG prodrugs in the systemic circulation, prodrugs were incubated with plasma (rat, mouse, dog, pig or human) supplemented with lipoprotein lipase (LPL, 200 IU/ml). LPL is a key enzyme required for the hydrolysis of lipoprotein associated TG in the systemic circulation and is therefore expected to be a key contributor to lipolysis of the re-esterified drug-TG construct in plasma, largely via liberation of fatty acids in the sn-1 and the sn-3 position of the TG-mimetic, prior to drug release from the 2′ position via esterase hydrolysis. LPL is […] is tethered to the luminal surface of vascular endothelial cells under physiological conditions. In the current in vitro studies, plasma was therefore supplemented with LPL to better reflect the in vivo situation. To start hydrolysis, 10 μl of LPL solution (10,000 IU/ml) was added to a mixture of 10 μl of prodrug solution (1 mg/ml dissolved in acetonitrile) and 500 μl of blank plasma. The mixture was incubated at 37° C. Samples (20 μl) of the incubation solution were taken at 0, 5, 15, 30, 60, 90, 120 and 180 minutes post-incubation and added to 180 μl of MeCN to stop lipolysis. The mixture was vortexed and centrifuged at 4500×g for 5 minutes to precipitate proteins prior to analysis. The supernatant was analyzed by HPLC-MS/MS for the potential products (MG form, acid form, and free drug) of prodrug hydrolysis.

[4] = cited from earlier work

CCCCCCCCCCCCCCCC(=O)OCC(COC(=O)CCCCCCCCCCCCCCC)OC(=O)CC/C(C)=C/Cc1c(O)c2c(c(C)c1OC)COC2=O [I-34, MPA-2-TG]
Cumulative lymphatic transport % dose (Mean ± SD, or Range if n = 2) [1]: A (greater than 10% (>10%)) | concentrations of free MPA in mesenteric lymph nodes compared with MPA [2]: Much higher concentrations | Percentage MPA release at 60 min in LPL supplemented rat plasma [3]: *** (a release % of >50% to 75%)

CCCCCCCCCCC(=O)O[C@H]1CC[C@H]2[C@@H]3CCC4=CC(=O)CC[C@]4(C)[C@H]3CC[C@]12C [testosterone undecanoate]
bioavailability of testosterone after oral administration of the undecanoate ester [4]: < 5%
